These results are taken from patent publication US7651978B2, “Selective herbicides based on a substituted phenylsulphonylaminocarbonyl-triazolinone” (Arysta LifeScience North America, LLC, priority 1998, dated 2010).

What all share (type): in vivo
Data set [1] deals with weeds, such as Agropyron, Alopecurus, Avena, Bromus, Lolium, Setaria and Veronica. Briefly: Post-emergence test/greenhouse, summary over weeds. Particulars: cf. Table B1. How it is done:
Post-Emergence Test/Greenhouse [table] To produce a suitable preparation of active compound, 1 part by weight of active compound is mixed with the stated amount of solvent, the stated amount of emulsifier is added and the concentrate is diluted with water to the desired concentration. Test plants which have a height of 5-15 cm are sprayed with the preparation of active compound such that the particular amounts of active compound desired are applied per unit area. The concentration of the spray liquor is chosen so that the particular amounts of active compound desired are applied in 500 ml of water/ha. After three weeks, the degree of damage to the plants is assessed in % damage in comparison to the development of the untreated control. […] A considerable superiority of (I)-Na-salt (at 125 g/ha) over the comparative compounds (G) and (H) (in each case at 250 g/ha!) is shown in Table B2.

The subject of data set [2] is weeds, such as Alopecurus, Avena, Bromus, Digitaria, Echinochloa, Matricaria, Polygonum and Setaria. The data set is described as follows: Pre-emergence test/greenhouse, summary over weeds. Particulars: cf. Table A1. The method, then: Pre-Emergence Test/Greenhouse Solvent: 5 parts by weight of acetone Emulsifier: 1 part by weight of alkylaryl polyglycol ether To produce a suitable preparation of active compound, 1 part by weight of active compound is mixed with the stated amount of solvent, the stated amount of emulsifier is added and the concentrate is diluted with water to the desired concentration. Seeds of the test plants are sown in normal soil. After about 24 hours, the soil is sprayed with the preparation of active compound such that the particular amount of active compound desired is applied per unit area. The concentration of the spray liquor is chosen so that the particular amount of active compound desired is applied in 500 ml of water per hectare. After three weeks, the degree of damage to the plants is assessed in % damage in comparison to the development of the untreated control. […] Table A1). The considerable superiority of (I)-Na-salt over the comparative compound (G) is shown in Table A2 [“ai.”=“active ingredient”].

Data set [3] deals with Polygonum. Briefly: Pre-emergence test/greenhouse. Particulars: 30 g of ai./ha, after three weeks. The method, then:
(§1) Pre-Emergence Test/Greenhouse Solvent: 5 parts by weight of acetone Emulsifier: 1 part by weight of alkylaryl polyglycol ether To produce a suitable preparation of active compound, 1 part by weight of active compound is mixed with the stated amount of solvent, the stated amount of emulsifier is added and the concentrate is diluted with water to the desired concentration. Seeds of the test plants are sown in normal soil. After about 24 hours, the soil is sprayed with the preparation of active compound such that the particular amount of active compound desired is applied per unit area. The concentration of the spray liquor is chosen so that the particular amount of active compound desired is applied in 500 ml of water per hectare. After three weeks, the degree of damage to the plants is assessed in % damage in comparison to the development of the untreated control. The figures denote: • 0%=no effect (like untreated control) • 100%=total destruction

In data set [4] the test system is Echinochloa. The data set is described as follows: Pre-emergence test/greenhouse. Particulars: 30 g of ai./ha, after three weeks. The method, then: as §1
For data set [5], the system named is Wheat. Briefly: Pre-emergence test/greenhouse. Particulars: pre-emergence, 30 g of ai./ha, after three weeks; 0%=no effect, 100%=total destruction. How it is done:
as §1

Data set [6] concerns Setaria. The data set is described as follows: Pre-emergence test/greenhouse. Particulars: after three weeks. How it is done: as §1
In data set [7] the test system is Avena. Briefly: Pre-emergence test/greenhouse. Particulars: 504 h, after three weeks, read-out: degree of damage, Avena; for pest or weed control at 30 g/ha: 30 g of ai./ha. How it is done: as §1
In data set [8] the test system is Bromus. The data set is described as follows: Pre-emergence test/greenhouse. Particulars: 30 g of ai./ha, after three weeks. The method, then: as §1
Data set [9] concerns Digitaria. Briefly: Pre-emergence test/greenhouse. Particulars: 30 g of ai./ha, after three weeks. The method, then: as §1
For data set [10], the system named is Matricaria. Briefly: Pre-emergence test/greenhouse. Particulars: 30 g of ai./ha, after three weeks. How it is done:
as §1

Data set [11] has as its system Alopecurus. The data set is described as follows: Pre-emergence test/greenhouse. Particulars: 504 h, after three weeks, read-out: degree of damage, Alopecurus; for pest or weed control at 30 g/ha: 30 g of ai./ha. How it is done:
as §1

Data set [12] concerns Wheat. Briefly: Post-emergence test/greenhouse. Particulars: post-emergence, 60 g ai./ha, after three weeks; 0%=no effect, 100%=total destruction. How it is done: (§2) Post-Emergence Test/Greenhouse [table] To produce a suitable preparation of active compound, 1 part by weight of active compound is mixed with the stated amount of solvent, the stated amount of emulsifier is added and the concentrate is diluted with water to the desired concentration. Test plants which have a height of 5-15 cm are sprayed with the preparation of active compound such that the particular amounts of active compound desired are applied per unit area. The concentration of the spray liquor is chosen so that the particular amounts of active compound desired are applied in 500 ml of water/ha. After three weeks, the degree of damage to the plants is assessed in % damage in comparison to the development of the untreated control. The figures denote: • 0%=no effect (like untreated control) • 100%=total destruction

For data set [13], the system named is Agropyron. The data set is described as follows: Post-emergence test/greenhouse. Particulars: 60 g ai./ha, after three weeks. The method, then: as §2
Data set [14] relates to Setaria. The data set is described as follows: Post-emergence test/greenhouse. Particulars: after three weeks. The method, then: as §2
Data set [15] relates to Avena. The data set is described as follows: Post-emergence test/greenhouse. Particulars: after three weeks. How it is done:
as §2

Data set [16] has as its system Bromus. Briefly: Post-emergence test/greenhouse. Particulars: 60 g ai./ha, after three weeks. How it is done:
as §2

For data set [17], the system named is Lolium. Briefly: Post-emergence test/greenhouse. Particulars: 60 g ai./ha, after three weeks. How it is done:
as §2

Data set [18] deals with Alopecurus. The data set is described as follows: Post-emergence test/greenhouse. Particulars: 504 h, after three weeks, read-out: degree of damage, Alopecurus; for pest or weed control at 60 g/ha: 60 g ai./ha; for pest or weed control at 250 g/ha: 250 g ai./ha. How it is done:
as §2

Data set [19] has as its system Veronica. Briefly: Post-emergence test/greenhouse. Particulars: 60 g ai./ha, after three weeks. The method, then: as §2

Regarding `CCn1c(OC)nn(C(=O)NS(=O)(=O)c2ccccc2OC(F)(F)F)c1=O` [(A), 2-(2-Trifluoromethoxy-phenylsulphonylaminocarbonyl)-4-ethyl-5-methoxy-2,4-dihydro-3H-1,2,4-triazol-3-one], the “herbicidal activity (in words, compared with (I)-Na-salt)” value in data set [1] and in data set [2] was “considerably weaker herbicidal activity” each time. In addition, the “degree of damage, Polygonum” value in [3] stood at 0%. For the same compound, in [4], the “degree of damage, Echinochloa” value was 50%. In addition, the “degree of damage, Wheat” value in [5] and in data set [12] was 0% in each case. For the same compound, the “degree of damage, Setaria” value is 60% in data set [6] (30 g of ai./ha) and 40% in data set [14] (60 g ai./ha). Further, the pest or weed control at 30 g/ha in [7] was 0%; in data set [11], 20%. The “degree of damage, Bromus” value in data set [8] and in data set [16] was 40% throughout. For the same compound, the “degree of damage, Digitaria” value in data set [9] was 0%. Besides, the “degree of damage, Matricaria” value in data set [10] is recorded as 0%. For the same compound, the “degree of damage, Agropyron” value in data set [13] was 0%. Further, in [15] (60 g ai./ha), the “degree of damage, Avena” value is 0%. Besides, the “degree of damage, Lolium” value in data set [17] is recorded as 0%. Also, the pest or weed control at 60 g/ha in [18] stood at 0%.
For `COc1nn(C(=O)NS(=O)(=O)c2ccccc2OC(F)(F)C(F)F)c(=O)n1C` [(G), 2-[2-(1,1,2,2-Tetrafluoroethoxy)-phenylsulphonylaminocarbonyl]-4-methyl-5-methoxy-2,4-dihydro-3H-1,2,4-triazol-3-one], the “degree of damage, Setaria” value in data set [6] (250 g ai./ha) stood at 50%; in data set [14] (250 g ai./ha), 30%. Besides, the pest or weed control at 250 g/ha in data set [7] (250 g ai./ha) came to 0%; in [11] (250 g ai./ha) it was 50%; in data set [18], 30%. Besides, the “degree of damage, Avena” value in [15] (250 g ai./ha) was found to be 0%.
For `COc1nn(C(=O)NS(=O)(=O)c2ccccc2OC(F)F)c(=O)n1C` [(E), 2-(2-Difluoromethoxy-phenylsulphonylaminocarbonyl)-4-methyl-5-methoxy-2,4-dihydro-3H-1,2,4-triazol-3-one], the “herbicidal activity (in words, compared with (I)-Na-salt)” value in [1] and in data set [2] was “considerably weaker herbicidal activity” in each case. Besides, the “degree of damage, Polygonum” value in data set [3] turned out to be 60%. Also, the “degree of damage, Echinochloa” value in data set [4] was 30%. In addition, the “degree of damage, Wheat” value in [5] and in data set [12] was 0% each time. For the same compound, the “degree of damage, Setaria” value in data set [6] (30 g of ai./ha) was 80%. Moreover, the pest or weed control at 30 g/ha in data set [7] was 30%; in data set [11] it was 50%. Further, the “degree of damage, Bromus” value in [8] and in data set [16] was 0% each time. In data set [9], the “degree of damage, Digitaria” value came to 40%. For the same compound, the “degree of damage, Matricaria” value in data set [10] came to 0%. The “degree of damage, Agropyron” value in data set [13] came out at 60%. The “degree of damage, Avena” value in [15] (60 g ai./ha) turned out to be 70%. For the same compound, in [17], the “degree of damage, Lolium” value amounted to 20%. For the same compound, the “degree of damage, Veronica” value in data set [19] is given as 30%. The pest or weed control at 60 g/ha in data set [18] came out at 20%.
`COn1c(C)nn(C(=O)NS(=O)(=O)c2ccccc2OC(F)(F)F)c1=O` [(C), 2-(2-Trifluoromethoxy-phenylsulphonylaminocarbonyl)-4-methoxy-5-methyl-2,4-dihydro-3H-1,2,4-triazol-3-one]: the “herbicidal activity (in words, compared with (I)-Na-salt)” value in data set [1] and in [2] was “considerably weaker herbicidal activity” throughout. In data set [3], the “degree of damage, Polygonum” value was 0%. The “degree of damage, Echinochloa” value in data set [4] is 0%. Moreover, the “degree of damage, Wheat” value in data set [5] and in [12] was 0% each time. Moreover, the “degree of damage, Setaria” value in data set [6] (30 g of ai./ha) and in data set [14] (60 g ai./ha) was 0% in each case. For the same compound, the pest or weed control at 30 g/ha in data set [7] and in data set [11] was 0% in each case. Also, the “degree of damage, Bromus” value in [8] and in data set [16] was 0% throughout. Further, in data set [9], the “degree of damage, Digitaria” value amounted to 0%. For the same compound, the “degree of damage, Matricaria” value in data set [10] turned out to be 0%. Besides, the “degree of damage, Agropyron” value in data set [13] is on record as 0%. For the same compound, in data set [15] (60 g ai./ha), the “degree of damage, Avena” value is given as 0%. In addition, the “degree of damage, Lolium” value in data set [17] was determined as 0%. Further, the “degree of damage, Veronica” value in data set [19] stood at 0%. Moreover, the pest or weed control at 60 g/ha in data set [18] stood at 0%.
Take `COc1nn(C(=O)NS(=O)(=O)c2ccccc2OC(F)(F)C(F)(F)F)c(=O)n1C` [(H), 2-[2-(Pentafluoroethoxy)-phenylsulphonylaminocarbonyl]-4-methyl-5-methoxy-2,4-dihydro-3H-1,2,4-triazol-3-one]: the “degree of damage, Setaria” value in data set [14] (250 g ai./ha) was 20%. The “degree of damage, Avena” value in [15] (250 g ai./ha) is 80%. The pest or weed control at 250 g/ha in data set [18] came out at 40%.
